According to patent US8796234B2, “Crosslinking branched molecule through thiol-disulfide exchange to form hydrogel” (Agency for Science, Technology and Research, priority 2009, dated 2014):

Assay: Drug loading capacity of sample hydrogel
Assay type: physicochemical
Details: poly(BAC2-AEPZ1)-PEG hydrogel
Method: Aqueous solutions of 5 wt % poly(BAC2-AEPZ1)-PEG was prepared and left to equilibrate overnight at room temperature. Appropriate amounts of doxorubicin (Dox) were loaded to make the concentration of Dox in the polymer solution 5 mg mL^−1. Subsequently, small amount of 5M sodium hydroxide (NaOH) was added in and was being vortexed for a few minutes to adjust pH to more than 12, and the solutions turn blue. Then, the solution was left undisturbed during hydrogel formation for predetermined time. After predetermined time, a slight in excessive of 5M HCl was added to neutralize the hydrogel to keep the hydrogel stable, and the hydrogel turned red. […]
The results were presented in terms of cumulative release as a function of time: Cumulative amount release (%)=(Mt/M∞) where Mt is the amount of Dox released from the hydrogel at time t and M∞ is the estimate amount of Dox loaded in the hydrogel and was calculated from the weight difference of the initial Dox solution concentration and the remaining Dox solution concentration (combining rinsing water and remaining solution expelled from the hydrogel) after loading.
1 mL of Pac/methanol was extracted from saturated stock solution (50 mg/mL) and added to a vial. […] The column effluent was detected UV spectrophotometrically at wavelength of 227 nm. […]

| Structure (SMILES) | loading capacity of drug in the sample hydrogel |
| --- | --- |
| COc1cccc2c1C(=O)c1c(O)c3c(c(O)c1C2=O)C[C@@](O)(C(=O)CO)C[C@@H]3O[C@H]1C[C@H](N)[C@H](O)[C@H](C)O1 [Dox, doxorubicin] | 5-10% |
| CC(=O)O[C@H]1C(=O)[C@@]2(C)[C@H]([C@H](OC(=O)c3ccccc3)[C@]3(O)C[C@H](OC(=O)[C@H](O)[C@@H](NC(=O)c4ccccc4)c4ccccc4)C(C)=C1C3(C)C)[C@]1(OC(C)=O)CO[C@@H]1C[C@@H]2O [Pac, Paclitaxel] | 30-50% |
